Data: US20250115597A1, “TYK2 INHIBITORS AND COMPOSITIONS AND METHODS THEREOF” (LYNK PHARMACEUTICALS CO. LTD., priority 2021, published 2025)
Read-outs that look alike come from different tables or passages of the source.

Experiments:
TYK2-JH2 domain = target: T1, TYK2-JH2 domain (Homo sapiens, UniProt P29597); assay: Binding activity test for JH2 domain of TYK2 (Tb-antibody/tracer FRET)
T1 construct: IC50 on JH2 domain activity (nM)
Procedure, shortened: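 Compounds tested as 11-point 3-fold serial dilutions against the JH2 domain in a Tb-antibody/tracer FRET binding format. Plates incubated 60 min at 25° C, then overnight at 4° C, before FRET reading.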

JAK1 = target: T2, JAK1 (Homo sapiens, UniProt P23458); assay: JAK1 kinase activity, microfluidic assay (Caliper EZ Reader II); assay type: biochemical; conditions: JAK1 5 nM, 1 mM ATP
T2 construct: purchased Carna Biosciences
T2 sequence (P23458 whole entry): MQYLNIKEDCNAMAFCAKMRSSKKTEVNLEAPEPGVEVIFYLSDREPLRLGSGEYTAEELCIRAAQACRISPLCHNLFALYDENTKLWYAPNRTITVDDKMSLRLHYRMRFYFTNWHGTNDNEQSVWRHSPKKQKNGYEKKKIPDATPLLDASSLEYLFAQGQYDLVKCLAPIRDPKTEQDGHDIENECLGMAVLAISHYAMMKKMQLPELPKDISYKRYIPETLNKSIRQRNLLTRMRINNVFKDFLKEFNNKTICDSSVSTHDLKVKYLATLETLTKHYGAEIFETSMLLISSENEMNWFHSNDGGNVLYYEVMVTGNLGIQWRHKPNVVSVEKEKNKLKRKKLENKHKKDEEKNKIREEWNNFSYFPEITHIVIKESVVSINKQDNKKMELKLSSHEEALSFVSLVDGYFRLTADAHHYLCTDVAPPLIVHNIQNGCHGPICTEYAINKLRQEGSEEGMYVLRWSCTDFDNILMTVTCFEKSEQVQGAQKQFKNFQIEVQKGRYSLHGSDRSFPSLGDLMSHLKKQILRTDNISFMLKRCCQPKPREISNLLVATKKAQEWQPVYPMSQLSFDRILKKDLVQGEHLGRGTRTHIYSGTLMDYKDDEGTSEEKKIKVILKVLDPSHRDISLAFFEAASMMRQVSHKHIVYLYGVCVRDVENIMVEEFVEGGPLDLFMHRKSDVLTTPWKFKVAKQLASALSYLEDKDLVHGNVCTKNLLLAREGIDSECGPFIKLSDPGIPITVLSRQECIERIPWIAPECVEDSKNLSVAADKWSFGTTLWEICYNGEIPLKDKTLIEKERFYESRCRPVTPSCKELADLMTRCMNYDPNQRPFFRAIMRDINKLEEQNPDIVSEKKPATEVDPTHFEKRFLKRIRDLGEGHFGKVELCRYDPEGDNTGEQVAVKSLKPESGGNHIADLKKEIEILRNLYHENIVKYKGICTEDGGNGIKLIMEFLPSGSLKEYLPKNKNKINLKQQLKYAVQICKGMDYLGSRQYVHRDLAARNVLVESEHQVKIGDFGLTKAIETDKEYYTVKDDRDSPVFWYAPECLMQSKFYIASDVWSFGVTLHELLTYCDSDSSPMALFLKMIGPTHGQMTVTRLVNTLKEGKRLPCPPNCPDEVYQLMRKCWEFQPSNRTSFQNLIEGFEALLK
Procedure, shortened: (§1)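 Human JAK1, JAK2 or TYK2 enzyme was used in 50 mM HEPES, 10 mM MgCl2, 2 mM DTT and 0.01% Brij35, tuned to 10% conversion of a FAM-labelled peptide. Threefold dilutions of compound (top 5 µM, 1% DMSO) were pre-incubated with enzyme for 10 min, and reactions were stopped with EDTA. Phosphorylation was read by microfluidic mobility shift, and IC50 came from percent-inhibition curves.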

JAK2 = target: T3, JAK2 (Homo sapiens, UniProt O60674); assay: JAK2 kinase activity, microfluidic assay (Caliper EZ Reader II); assay type: biochemical; conditions: JAK2 0.125 nM, 1 mM ATP
T3 construct: purchased Carna Biosciences
T3 sequence (O60674 whole entry): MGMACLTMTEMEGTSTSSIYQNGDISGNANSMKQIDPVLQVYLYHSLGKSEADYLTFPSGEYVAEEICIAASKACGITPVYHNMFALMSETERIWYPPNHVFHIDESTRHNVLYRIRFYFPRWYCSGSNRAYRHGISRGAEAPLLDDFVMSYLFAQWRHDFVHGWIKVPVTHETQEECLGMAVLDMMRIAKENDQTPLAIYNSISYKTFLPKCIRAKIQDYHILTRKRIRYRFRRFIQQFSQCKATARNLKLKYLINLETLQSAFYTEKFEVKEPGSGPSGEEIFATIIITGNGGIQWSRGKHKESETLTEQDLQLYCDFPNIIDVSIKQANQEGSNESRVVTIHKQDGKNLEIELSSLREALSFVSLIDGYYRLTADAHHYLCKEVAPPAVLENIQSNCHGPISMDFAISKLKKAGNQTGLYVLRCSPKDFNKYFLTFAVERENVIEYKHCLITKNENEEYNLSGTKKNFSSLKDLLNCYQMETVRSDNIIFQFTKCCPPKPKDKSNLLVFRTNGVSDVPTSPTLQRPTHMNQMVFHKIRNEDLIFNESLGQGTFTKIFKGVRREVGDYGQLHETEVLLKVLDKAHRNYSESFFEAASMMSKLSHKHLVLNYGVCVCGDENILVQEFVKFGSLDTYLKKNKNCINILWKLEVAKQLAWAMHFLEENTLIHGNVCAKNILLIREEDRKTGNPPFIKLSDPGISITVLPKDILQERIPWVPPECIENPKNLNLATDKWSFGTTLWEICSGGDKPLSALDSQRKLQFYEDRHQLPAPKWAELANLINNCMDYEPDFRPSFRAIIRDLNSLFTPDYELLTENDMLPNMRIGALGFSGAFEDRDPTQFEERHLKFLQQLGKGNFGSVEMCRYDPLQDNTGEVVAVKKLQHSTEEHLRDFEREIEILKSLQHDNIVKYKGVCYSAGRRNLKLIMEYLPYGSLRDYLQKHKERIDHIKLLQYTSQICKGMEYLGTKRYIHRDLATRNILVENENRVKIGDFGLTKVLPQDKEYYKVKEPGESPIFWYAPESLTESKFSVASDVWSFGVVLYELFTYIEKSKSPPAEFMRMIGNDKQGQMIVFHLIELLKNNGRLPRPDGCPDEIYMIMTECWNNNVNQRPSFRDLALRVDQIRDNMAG
Procedure, shortened: as §1

TYK2 = target: T4, TYK2 (Homo sapiens, UniProt P29597); assay: TYK2 kinase activity, microfluidic assay (Caliper EZ Reader II); assay type: biochemical; conditions: TYK2 1 nM, 1 mM ATP
T4 construct: purchased Carna Biosciences
T4 sequence (P29597 whole entry): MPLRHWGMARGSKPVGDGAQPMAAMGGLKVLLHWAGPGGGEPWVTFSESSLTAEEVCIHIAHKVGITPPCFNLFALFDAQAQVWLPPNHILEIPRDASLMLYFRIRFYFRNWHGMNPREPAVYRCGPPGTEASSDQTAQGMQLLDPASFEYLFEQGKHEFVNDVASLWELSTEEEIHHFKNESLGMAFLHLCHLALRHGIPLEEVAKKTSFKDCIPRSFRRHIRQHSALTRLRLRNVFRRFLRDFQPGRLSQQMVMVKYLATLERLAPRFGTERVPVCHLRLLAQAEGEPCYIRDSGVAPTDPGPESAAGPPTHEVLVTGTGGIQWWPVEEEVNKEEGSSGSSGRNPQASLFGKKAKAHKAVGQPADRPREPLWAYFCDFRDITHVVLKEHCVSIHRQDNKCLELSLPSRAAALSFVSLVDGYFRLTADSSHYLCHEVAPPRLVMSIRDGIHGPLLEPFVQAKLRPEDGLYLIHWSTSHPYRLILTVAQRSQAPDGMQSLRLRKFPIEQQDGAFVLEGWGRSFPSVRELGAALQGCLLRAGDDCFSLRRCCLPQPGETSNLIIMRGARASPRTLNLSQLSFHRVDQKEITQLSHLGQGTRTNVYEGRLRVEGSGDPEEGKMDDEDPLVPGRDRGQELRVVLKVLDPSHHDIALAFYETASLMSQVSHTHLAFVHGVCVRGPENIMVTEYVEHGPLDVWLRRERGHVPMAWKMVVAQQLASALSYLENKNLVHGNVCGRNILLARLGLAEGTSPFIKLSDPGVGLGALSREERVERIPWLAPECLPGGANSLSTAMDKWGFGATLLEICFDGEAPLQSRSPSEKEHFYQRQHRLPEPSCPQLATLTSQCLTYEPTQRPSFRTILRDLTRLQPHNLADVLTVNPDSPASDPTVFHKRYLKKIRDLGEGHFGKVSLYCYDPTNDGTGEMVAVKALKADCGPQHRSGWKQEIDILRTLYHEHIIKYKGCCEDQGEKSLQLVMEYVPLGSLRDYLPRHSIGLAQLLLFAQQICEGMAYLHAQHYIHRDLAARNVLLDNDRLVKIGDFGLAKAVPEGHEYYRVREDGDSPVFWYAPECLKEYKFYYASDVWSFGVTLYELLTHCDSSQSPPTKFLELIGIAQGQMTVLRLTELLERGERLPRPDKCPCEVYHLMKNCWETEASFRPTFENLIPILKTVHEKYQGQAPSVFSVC
Procedure, shortened: as §1

[1] = target: T5, Ba/F3-FL-TYK2-P760L cells (Homo sapiens, UniProt P29597, P760L, cells depend on it); assay: Anti-proliferative assay, Ba/F3-FL-TYK2-P760L cells (Cell-Titer Glo); assay type: cell-based; conditions: 72 h, read-out: BaF3-FL-T2P760L IC50
T5 construct: BaF3-FL-T2P760L (nM)
T5 sequence (P29597 whole entry P760L): as the sequence (P29597 whole entry) above, with P760L counted along it
Procedure, shortened: (§2)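 Ba/F3 cells made IL-3-independent by TEL-fused or full-length mutant JAK-family kinases, seeded at 2000/well and dosed after 24 h with 9 three-fold dilutions topping at 20 μM. Viability after 72 h at 37 °C, 5% CO2 by Cell-Titer Glo ATP luminescence.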

Ba/F3-TEL-TYK2 cells = target: T6, Ba/F3-TEL-TYK2 cells (Homo sapiens, UniProt P29597); assay: Anti-proliferative assay, Ba/F3-TEL-TYK2 cells (Cell-Titer Glo); assay type: cell-based; conditions: 72 h, read-out: BaF3-TEL-TYK2 IC50
T6 construct: fused on or other part: Dimerization domain of TEL (ETV6) fused to the TYK2 kinase domain; P41212 (Transcription factor ETV6)
T6 sequence (P29597 whole entry, change not shown, the tested form may be a part): as the sequence (P29597 whole entry) above
Procedure, shortened: as §2

Ba/F3-TEL-JAK2 cells = target: T7, Ba/F3-TEL-JAK2 cells (Homo sapiens, UniProt O60674); assay: Anti-proliferative assay, Ba/F3-TEL-JAK2 cells (Cell-Titer Glo); assay type: cell-based; conditions: 72 h, read-out: BaF3-TEL-JAK2 IC50
T7 construct: fused on or other part: Dimerization domain of TEL (ETV6) fused to the JAK2 kinase domain; P41212 (Transcription factor ETV6)
T7 sequence (O60674 whole entry, change not shown, the tested form may be a part): as the sequence (O60674 whole entry) above
Experimental: Anti-Proliferative Assay Dimerization domain of Tel protein fused with JAK kinase domain was permanently transduced into Ba/F3 cells, whose proliferation is dependent on JAK activity in the absence of IL-3 induction. These engineered Ba/F3 cells (Ba/F3-FL-TYK2-[…], Ba/F3-TEL-TYK2 and Ba/F3-TEL-JAK2) were used to monitor JAK inhibitory activities of the compounds in the cellular. […] Cells were seeded at 2000/well of white flat bottom 96-well plates. The well containing medium only was used as background control. After 24 h growth, cells were treated with compounds. The test compounds were dissolved in DMSO to a stock concentration of 20 mM. 3-fold serially diluted compounds for 9 concentrations with top concentration of 20 μM was added into the each well. […] The cells continued to grow at 37° C. in 5% CO2 for 72 h after compound treatment. The viability was measured by cellular ATP determination using the Cell-Titer Glo luciferase reagent (Promega). The Luminescence value was recorded by a multi-label reader Envision (PerkinElmer).

[2] = Microsomal metabolic stability assay; assay type: in vitro ADME; conditions: pH 7.4, 0.5 mg/mL protein, 1 μM compound
Procedure, shortened: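 Test article at 1 μM with 0.5 mg/mL microsomal protein and 2 mM NADPH, in 100 mM potassium phosphate pH 7.4 with 1.0 mM EDTA at 37 °C. Sampled at 0–45 min and quantified by LC/MS/MS. T1/2 from the slope of ln % remaining vs time.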

[3] = Plasma protein binding by equilibrium dialysis; assay type: in vitro ADME; conditions: human plasma, equilibrium dialysis 5 hours at 37° C.; read-out: % Bound (human) (converted)
Experimental: Plasma Protein Binding by Equilibrium Dialysis
Aliquots of test compound stock solution and warfarin stock solution were spiked into plasma to give the matrix solutions with theoretical concentrations of test compound at 0.2 and 2 μM or warfarin at 2 μM. Immediately transfer 50 μL of the spiked plasma solution suspension to a 96-well plate to act as T=0 control sample. Assemble the dialysis set up following the manufacturer's instructions. Load cells with 150 μL of plasma sample and dialyzed against equal volume of dialysis buffer (PBS). The assay is performed in duplicate. Cover the unit with gas permeable lid and incubate for 5 hours at 37° C. at 100 rpm in a constant temperature shaking box. At the end of incubation, remove lid and pipette 50 μL of post-dialysis samples from both buffer and plasma solution chambers into separated 96-well plate for analysis, respectively. Add 50 μL of plasma solution to the buffer samples, and an equal volume of PBS to the collected plasma solution samples. Shake the plate at 1000 rpm for 2 minutes and add 600 μL of 50% ACN/MeOH containing an appropriate internal standard (IS) to precipitate protein and release compound. Vortex at 1000 rpm for 10 minutes. Centrifuge for 10 minutes at 4000 rpm. Then transfer 75 μL of the supernatant to new 96-well plates for analysis. Add 150 μL of distilled water to each sample and mix for analysis by LC-MS/MS.
The free rate (% Unbound), binding rate (% Bound), and recovery rate (% Recovery) of the compound are calculated as follows: […]

pSTAT1 [4] = assay: Phosphorylation inhibition of STAT in human whole blood, IFN-alpha stimulated (flow cytometry); assay type: cell-based; conditions: 20 min, read-out: IC50 on pSTAT1 inhibition in h WB
Procedure, shortened: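 Freshly prepared PBMC or freshly collected whole blood stimulated with human Universal Type I IFN-alpha for 20 min, then fixed, permeabilized on ice and stained for CD3 and pSTAT1 (Y701). pSTAT1 read by flow cytometry; IC50 from 4-parameter logistic fit.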

pSTAT1 [5] = assay: Phosphorylation inhibition of STAT in human PBMC, IFN-alpha stimulated (flow cytometry); assay type: cell-based; conditions: 20 min, read-out: IC50 on pSTAT1 inhibition in hPBMC
Experimental: Phosphorylation Inhibition of STAT in Human PBMC and Human Whole Blood Testing:
The inhibitory potential of test articles in human PBMC and human whole blood assay was evaluated by the method of flow cytometry.
IFN-alpha will activate JAK1 and TYK2 kinase in T cells by binding to IFN receptors, and then lead to phosphorylation of STAT1 and STAT2. The phosphorylated STAT1 enter nuclear and promote transcription and expression of IFN-gamma. To evaluate the efficacy of TYK2i in T cells, freshly prepared human PBMC or freshly collected human whole blood will be stimulated with certain unit of human IFN-alpha (Universal Type I IFN(1MU), R&D, 11200-2) for 20 mins in incubator. After stimulation, fix cells with Phosflow™ Fix Buffer I (BD, 557870), and then collect fixed cells by centrifugation (500 g, 8 min). Wash cells once with pre-cooled PBS, and then permeabilize cells with cold Perm Buffer III buffer (BD, 558050) for 45 mins on ice. Collect cells by centrifugation (600 g, 8 min) and washed twice with cold PBS. Stain cells with anti-human CD3 (FITC Mouse Anti-Human CD3, BD, 555332) and anti-pSTAT1_Y701(Alexa Fluor 647 Mouse Anti-Stat1 (pY701), BD, 612597) antibodies. Detect pSTAT1 by flow cytometry (CytoFlex S) and analyze data with FlowJo and GraphPad Prism 8 software. IC50 values of test articles were determined using 4-parameter logistic equation.

[6] = Hepatocytes metabolic stability assay; assay type: in vitro ADME; conditions: cryopreserved hepatocytes, human hepatocytes, 1.0×10^6 cells/mL
Procedure, shortened: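 Cryopreserved hepatocytes (1.0×10^6 cells/mL final) were incubated with test compound at 1 μM at 37 °C and sampled at 0, 15, 30, 60 and 120 min, with acetonitrile quench and LC-MS/MS. k came from log-linear % remaining versus time, giving T1/2 and CLint.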

[7] = dog liver microsomes, read-out: Dog LM Clint
[8] = dog liver microsomes, read-out: Dog LM T½
[9] = human liver microsomes, read-out: Human LM Clint
[10] = human liver microsomes, read-out: Human LM T½
[11] = rat liver microsomes, read-out: Rat LM Clint
[12] = rat liver microsomes, read-out: Rat LM T½
[13] = human whole blood, IFN-alpha 20 mins, CD3 cells
[14] = human PBMC, IFN-alpha 20 mins, CD3 cells

T1 sequence (P29597 589-875 limits assumed): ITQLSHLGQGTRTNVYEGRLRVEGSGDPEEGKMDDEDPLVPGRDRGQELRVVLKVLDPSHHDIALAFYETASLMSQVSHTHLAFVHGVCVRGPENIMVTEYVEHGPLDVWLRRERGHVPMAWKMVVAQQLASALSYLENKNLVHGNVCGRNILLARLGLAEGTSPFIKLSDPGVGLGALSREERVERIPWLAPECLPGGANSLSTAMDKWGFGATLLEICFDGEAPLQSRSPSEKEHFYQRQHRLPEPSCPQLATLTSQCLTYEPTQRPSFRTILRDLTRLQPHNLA

Row | SMILES | IC50 (TYK2-JH2 domain) [nM] | IC50 (JAK1) [nM] | IC50 (JAK2) [nM] | IC50 (TYK2) [nM] | GI50 [1] [nM] | GI50 (Ba/F3-TEL-TYK2 cells) [nM] | GI50 (Ba/F3-TEL-JAK2 cells) [nM] | microsomal CLint at 1 μM [2, 7] [µL/min/mg] | half-life at 1 μM [2, 8] [h] | microsomal CLint at 1 μM [2, 9] [µL/min/mg] | half-life at 1 μM [2, 10] [h] | microsomal CLint at 1 μM [2, 11] [µL/min/mg] | half-life at 1 μM [2, 12] [h] | fraction unbound at 5 h [3] | IC50 (pSTAT1 [4]; [13]) [nM] | IC50 (pSTAT1 [5]; [14]) [nM] | CLint scaled at 1 μM ([6]; read-out: Human hepatocyte Clint(liver)) [mL/min/kg] | half-life at 1 μM ([6]; read-out: Human hepatocyte stability T1/2) [h] | IC50 (pSTAT1 [4]; Homo sapiens) [nM] | IC50 (pSTAT1 [5]; Homo sapiens, PBMC) [nM]
1 | [2H]C([2H])([2H])NC(=O)c1cnc(Nc2cccc(C#N)c2)nc1Nc1cccc(-c2ncn(C)n2)c1OC [Example 19, 2-(3-Cyanoanilino)-4-[2-methoxy-3-(1-methyl-1,2,4-triazol-3-yl)anilino]-N-(trideuteriomethyl)pyrimidine-5-carboxamide] | 0.098 | > 5000 | > 5000 | > 5000 | 34.9 | > 20000 | 4960 | 71.2 | 0.812 | 4.46 | 12.9 | 43.6 | 1.32 | 0.038 | – | – | – | – | – | –
2 | [2H]C([2H])([2H])NC(=O)c1nnc2cc1Nc1cc(cc(-c3ncn(C)n3)c1OC)COCc1cc(F)cc(n1)N2 [Example 71, 19-Fluoro-10-methoxy-N-(methyl-d3)-11-(1-methyl-1H-1,2,4-triazol-3-yl)-15-oxa-2,4,5,8,21-pentaazatetracyclo[15.3.1.1^{3,7}.1^{9,13}]tricosa-1(21),3,5,7(23),9(22),10,12,17,19-nonaene-6-carboxamide] | – | – | – | – | 48.7 | – | – | 5.63 | 4.1 | 27.4 | 0.843 | 21.9 | 1.05 | – | 823 | 79.5 | – | – | – | –
3 | [2H]C([2H])([2H])NC(=O)c1cnc2cc1Nc1cc(cc(-c3ncn(C4CC4)n3)c1OC)COCc1nc(ccc1F)N2 [Example 83, 11-(1-Cyclopropyl-1H-1,2,4-triazol-3-yl)-18-fluoro-10-methoxy-N-(methyl-d3)-15-oxa-2,4,8,21-tetraazatetracyclo[15.3.1.1^{3,7}.1^{9,13}]tricosa-1(20),3,5,7(23),9(22),10,12,17(21),18-nonaene-6-carboxamide] | – | – | – | – | 38.7 | – | – | 26.7 | 0.866 | < 11.5 | > 2 | < 11.5 | > 2 | – | 1580 | 113 | – | – | – | –
4 | [2H]C([2H])([2H])NC(=O)c1cnc(Nc2ccc(F)cn2)cc1Nc1cn(C)c2c(F)cn(CC)c(=O)c12 [Example 125, 4-((5-Ethyl-7-fluoro-1-methyl-4-oxo-4,5-dihydro-1H-pyrrolo[3,2-c]pyridin-3-yl)amino)-6-((5-fluoropyridin-2-yl)amino)-N-(methyl-d3)nicotinamide] | 1.44 | – | – | – | 31.9 | – | – | – | – | – | – | – | – | – | 581 | 75.7 | – | – | – | –
5 | [2H]C([2H])([2H])NC(=O)c1nnc(NC(=O)C2CC2)cc1Nc1csc2ccn(CC)c(=O)c12 [Example 197, 6-(Cyclopropanecarboxamido)-N-(methyl-d3)-4-((5-ethyl-4-oxo-4,5-dihydrothieno[3,2-c]pyridin-3-yl)amino)pyridazine-3-carboxamide] | – | – | – | – | 54.3 | – | – | 20.8 | 1.11 | 77.7 | 0.298 | 290 | 0.0798 | – | 863 | 428 | < 7.35 | > 4 | – | –
6 | [2H]C([2H])([2H])NC(=O)c1nnc(NC(=O)C2CC2)cc1Nc1cn(C)c2ccn(CC)c(=O)c12 [Example 223, 6-(Cyclopropanecarboxamido)-4-((5-ethyl-1-methyl-4-oxo-4,5-dihydro-1H-pyrrolo[3,2-c]pyridin-3-yl)amino)-N-(methyl-d3)pyridazine-3-carboxamide] | – | – | – | – | 82.7 | – | – | – | – | – | – | – | – | – | 376 | 43.4 | – | – | – | –
7 | [2H]C([2H])([2H])NC(=O)c1cnc(NC(=O)C2CC2)cc1Nc1csc2cnn(CC)c(=O)c12 [Example 231, 6-(Cyclopropanecarboxamido)-4-((5-ethyl-4-oxo-4,5-dihydrothieno[2,3-d]pyridazin-3-yl)amino)-N-(methyl-d3)nicotinamide] | 0.979 | – | – | – | 65.9 | – | – | – | – | – | – | – | – | – | – | – | – | – | 14400 | 3510
